Experimental data taken from patent publication US11851410B2, “Sensors for detection of negatively charged phosphate-containing membranes and membrane components” (THE GOVERNING COUNCIL OF THE UNIVERSITY OF TORONTO, priority 2017, dated 2023).

Experiments:
[1] = cited from earlier work
[2] = tested on: POPE (PE) zwitterionic vesicles; experiment: Serial dilution vesicle fluorescence intensity experiments, PE vesicles; type: binding; details: sensor 25 μM (PSVue™380 1 μM), 50 mM HEPES, 5% DMSO, pH 7.5
Text: (§1) The following equations were used for the calculations: […]

[3] = tested on: DOPS (PS) negatively charged vesicles; experiment: Serial dilution vesicle fluorescence intensity experiments, PS vesicles; type: binding; parameters: ΔΔFI: unit not given here; details: for ΔΔFI: sensor 25 μM (PSVue™380 1 μM), 50 mM HEPES, 5% DMSO, pH 7.5
[4] = tested on: POPA (PA) negatively charged vesicles; experiment: Serial dilution vesicle fluorescence intensity experiments, PA vesicles; type: binding; details: for ΔΔFI: PA vesicles, sensor 25 μM (PSVue™380 1 μM), 50 mM HEPES, 5% DMSO, pH 7.5
Text: as §1

[5] = tested on: DOPS (PS) negatively charged vesicles; experiment: Serial dilution vesicle fluorescence intensity experiments, PS vesicles; type: binding; parameters: ΔΔFI: unit not given here; details: for ΔΔFI: sensor 25 μM (PSVue™380 1 μM), 50 mM HEPES, 5% DMSO, pH 7.5; remark: listed apart in the source
Text: as §1
It is estimated that a mammalian cell membrane is composed of 10% PS, with the majority located on the inner leaflet in the healthy state. However, during the early stages of apoptosis, this asymmetry is lost and PS becomes symmetrically distributed resulting in ˜5% of PS externalized to the outer leaflet. To address if compounds of this application could potentially be used for the detection of the PS externalization event during apoptosis, the exemplary sensors were screened against PC vesicles containing biologically-relevant levels of PS ([…]; assuming that approximately half of the lipid head groups will be exposed to the interior of the vesicle). The resulting ΔΔFI for vesicle concentrations up to 40 μM are presented in FIG. 7 and Table 1 (ΔΔFI for vesicle concentrations up to 200 μM is presented in FIG. 4).

[6] = tested on: POPG (PG) negatively charged vesicles; experiment: Serial dilution vesicle fluorescence intensity experiments, PG vesicles; type: binding; details: sensor 25 μM (PSVue™380 1 μM), 50 mM HEPES, 5% DMSO, pH 7.5
Text: as §1

[7] = tested on: TOCL (CL) negatively charged vesicles; experiment: Serial dilution vesicle fluorescence intensity experiments, CL vesicles; type: binding; parameters: ΔΔFI: unit not given here; details: for ΔΔFI: sensor 25 μM (PSVue™380 1 μM), 50 mM HEPES, 5% DMSO, pH 7.5
Text: as §1

[8] = tested on: Gram-positive bacteria (B. subtilis, B. megaterium, M. luteus, S. epidermidis); details: sensor 10 μM; λex/em 350/476 nm
Experimental: Bacteria samples were titrated from 10^8-10^10 cells/mL in a large-volume 12 well plate. Bacteria samples were added to black 384-well plates in triplicate.

[9] = tested on: E. coli K-12 BW25113 cells in presence of MV4-11 cells; experiment: Fluorescence microscopy experiments with bacteria and mammalian cells; type: cell-based; details: 10^8 cells/mL E. coli; sensor 40 μM
Experimental: MV4-11 mammalian cells and bacteria samples were both added to a microscope chamber slide and left to incubate for 5 minutes. Visualization was performed first in bright field and then auto-fluorescence was recorded with UV excitation. Sensors were then added into the chamber at appropriate concentrations and fluorescence emission was captured.

[10] = tested on: negatively charged vesicles (PA, PS, PG, CL); experiment: Vesicle fluorescence intensity experiments, all negatively charged vesicles; type: binding; details: sensor 25 μM; vesicles up to 200 μM; λex/em 350/476 nm
Experimental: (§2) Small Unilamellar Vesicles (SUVs) were prepared by the extrusion method. Appropriate amounts of lipid in the desired proportions were weighed out to create 10 mM liposome suspensions. The lipids were then dissolved in a minimum amount of chloroform and vortexed to ensure thorough mixing. The excess solvent was then dried off under a gentle stream of nitrogen and allowed to dry overnight in a vacuum dessicator to remove any remaining traces of solvent. The resulting lipid film was then hydrated with 2 mL of HEPES buffer (50 mM HEPES, pH 7.5) for 1 h. The sample was then subjected to five cycles of freeze-thaw-vortex, cycling between liquid nitrogen and a 60° C. water bath. The resulting suspension of multilamellar vesicles (MLVs) was then extruded 25 times through a 0.1 μm polycarbonate membrane installed in a mini-extruder (Avanti Polar Lipids, Alabaster, AL) to form SUV.
10 mM stock solutions of vesicles were diluted separately to 400 μM and 80 μM in pH 7.5, 50 mM HEPES buffer. […] The sensors were dissolved to a concentration of 50 μM (from 800 μM stock solutions in 100% DMSO) in 50 mM HEPES, pH 7.5, 10% DMSO buffer. […] Fluorescence intensities measured were used to calculate the following parameters: ΔFIexc, ΔΔFIexc, ΔFImon, ΔΔFImon, ΔΔFIexc/mon and ΔΔΔFI. The following equations were used for the calculations: […]
Of these, PC and PE represented the zwitterionic vesicles; PS (−1), PA (−1), PG (−1) and CL (−2) represented the negatively charged vesicles.
(§3) The fluorescence enhancement of the excimer (ΔFIexc) species in the presence of vesicles was calculated using equation 1, which is defined as the ratio of the emission intensities of the sensor-vesicle sample and the sensor alone.

[11] = tested on: zwitterionic vesicles (PC, PE); experiment: Vesicle fluorescence intensity experiments, zwitterionic vesicles; type: binding; details: sensor 25 μM; vesicles up to 200 μM; λex/em 350/476 nm
Experimental: as §2
10 mM stock solutions of vesicles were diluted separately to 400 μM and 80 μM in pH 7.5, 50 mM HEPES buffer. […] Fluorescence intensities measured were used to calculate the following parameters: ΔFIexc, ΔΔFIexc, ΔFImon, ΔΔFImon, ΔΔFIexc/mon and ΔΔΔFI. […]
as §3

PA vesicles = experiment: Zinc metalation fluorescence experiments; type: binding; details: for FIexc response to increasing PA vesicle concentrations, unmetallated: acid-treated glassware, chelex-treated buffers, non-normalized FIexc; for ability to detect PA vesicles in the absence of Zn^2+ (ΔFI): unmetallated sensors, PA vesicles 0-200 μM
Experimental: Vesicle fluorescence intensity experiments were performed in the absence or presence of zinc(II) (trifluoromethanesulfonate salt). Unmetallated PSVue™380 (PSVue™380*) was also included for reference.
All glassware was treated with 0.1 M HCl overnight, rinsed three times with MilliQ water, and oven dried. […] The sensor-zinc solutions were then combined with PA vesicles, prepared as described above, incubated as described above and the fluorescence emission intensity was then measured as described above.
In an effort to eliminate this possibility, all glassware was acid-treated and all buffers were chelex-treated to remove any metals, and the screens were repeated with PA vesicles. For these experiments, original non-normalized FIexc values were analyzed.

[12] = tested on: WT and mutant E. coli strains; experiment: Bacteria mutant strain knockout fluorimetry, E. coli; type: cell-based; details: for effect of LPS kinase knockouts on fluorescence fold: E. coli ΔWaaP, ΔwaaG; for effect of cardiolipin synthase knockouts on fluorescence fold: E. coli ΔclsA, ΔclsB, ΔclsC
Text: Fluorescence intensities were used to calculate the excimer emission in response to bacterial strains. Measurements were averaged over two triplicates.

[13] = 75% PS vesicles, 20 μM vesicles
[14] = PS vesicles (50%), 5 μM vesicles
[15] = PS vesicles (50%), 20 μM vesicles
[16] = 25% PS vesicles, 20 μM vesicles
[17] = 33% CL vesicles, 20 μM vesicles
[18] = CL vesicles (50%), 5 μM vesicles
[19] = CL vesicles (50%), 20 μM vesicles

| SMILES | ΔΔFI ([2]; 5 μM vesicles) | ΔΔFI ([2]; 20 μM vesicles) | ΔΔFI ([3]; 75% PS vesicles, 5 μM vesicles) | ΔΔFI [3, 13] | ΔΔFI [3, 14] | ΔΔFI [3, 15] | ΔΔFI ([4]; 5 μM vesicles) | ΔΔFI ([4]; 20 μM vesicles) | ΔΔFI ([5]; 5% PS vesicles, 5 μM vesicles) | ΔΔFI ([5]; 5% PS vesicles, 20 μM vesicles) | ΔΔFI ([5]; 25% PS vesicles, 5 μM vesicles) | ΔΔFI [5, 16] | ΔΔFI ([6]; 5 μM vesicles) | ΔΔFI ([6]; 20 μM vesicles) | ΔΔFI ([7]; 33% CL vesicles, 5 μM vesicles) | ΔΔFI [7, 17] | ΔΔFI [7, 18] | ΔΔFI [7, 19] | further results |
| --- | --- | --- | --- | --- | --- | --- | --- | --- | --- | --- | --- | --- | --- | --- | --- | --- | --- | --- | --- |
| c1ccc(CNCc2ccccn2)nc1 [DPA] |  |  |  |  |  |  |  |  |  |  |  |  |  |  |  |  |  |  | pKa [1]: 2.60; pKa (first given) [1]: 7.30; pKa (third printed) [1]: 1.12 |
| c1cc2ccc3ccc(CCCCN4CCNCCNCCNCC4)c4ccc(c1)c2c34 [I-2] | 1.1 | 1.6 | 4.2 | 11.7 | 2.8 | 7.6 | 4.3 | 12.3 | 1.6 | 3.1 | 1.8 | 4.3 | 2.5 | 5.5 | 3 | 7.2 | 4.4 | 12 |  |
| c1cc2ccc3ccc(CCCCN4CCCNCCNCCCNCC4)c4ccc(c1)c2c34 [I-4] | 1 | 1.3 | 7.1 | 16.7 | 4.5 | 10.3 | 7.3 | 21.7 | 2.2 | 3.9 | 2.9 | 5.6 | 3.4 | 7.7 | 3.9 | 9.2 | 5.9 | 16.3 | sensitivity compared to PSVue™380, 5 μM PS vesicles ([3]; 5 μM PS vesicles): comparable; sensing PA compared to PSVue™380 ([4]; Table 1 comparison): superior; detection of PC vesicles containing 5 and 25% PS ([5]; 5 and 25% PS, corresponding to 2.5 and 12.5% of PS exposed to solution): efficiently detected; detection of Gram-positive bacteria with a fluorometer in bulk solution [8]: can detect Gram-positive bacteria; sensitivity compared to PSVue™380, 20 μM CL vesicles [7]: comparable |
| c1ccc(CN(Cc2ccccn2)Cc2ccc3ccc4cccc5ccc2c3c45)nc1 [I-5] | 0.9 | 1 | 5.4 | 16.7 | 2.9 | 8.8 | 4.4 | 14.1 | 1.4 | 2.6 | 1.9 | 4 | 1.7 | 3.9 | 2.5 | 7.9 | 5 | 15.9 | detection of bacterial cells versus mammalian MV4-11 cells by microscopy [9]: bacterial cells are detected more readily than mammalian MV4-11 cells; sensitivity compared to PSVue™380, 20 μM CL vesicles [7]: comparable |
| c1ccc(CN(CCCCc2ccc3ccc4cccc5ccc2c3c45)Cc2ccccn2)nc1 [I-6] | 1 | 1 | 4.5 | 7.5 | 2.9 | 4.8 | 4.4 | 6.9 | 1.6 | 2.4 | 2.1 | 3 | 1.8 | 2.7 | 1.9 | 3.1 | 2.7 | 4.3 |  |
| O=C(CCCCc1ccc2ccc3cccc4ccc1c2c34)NCCNC(=O)c1ccc(CN(Cc2ccccn2)CC(O)CN(Cc2ccccn2)Cc2ccccn2)nc1 (stereo not shown) [I-12] |  |  |  |  |  |  |  |  |  |  |  |  |  |  |  |  |  |  | ΔFIexc for all negatively charged vesicles [10]: ≥ 20; ΔFIexc for negatively charged vesicles, highest value (up to) [10]: ~80; ΔFIexc for zwitterionic vesicles [11]: ≤ 2 |
| c1cc2ccc3ccc(CN4CCNCCNCCNCC4)c4ccc(c1)c2c34 [II-1, 1-(pyren-1-ylmethyl)-1,4,7,10-tetraazacyclododecane] |  |  |  |  |  |  |  |  |  |  |  |  |  |  |  |  |  |  | ΔFI of unmetallated sensor versus metallated counterpart (PA vesicles; PA vesicles): outperformed its metallated counterpart; FIexc response to increasing PA vesicle concentrations, unmetallated (PA vesicles): comparable responses; ability to detect PA vesicles in the absence of Zn^2+ (ΔFI) (PA vesicles): retained their ability to detect PA |
| c1cc2ccc3ccc(CN4CCCNCCNCCCNCC4)c4ccc(c1)c2c34 [II-3, 1-(pyren-1-ylmethyl)-1,4,8,11-tetraazacyclotetradecane] |  |  |  |  |  |  |  |  |  |  |  |  |  |  |  |  |  |  | effect of LPS kinase knockouts on fluorescence fold [12]: little to no change; effect of cardiolipin synthase knockouts on fluorescence fold [12]: greatest effect |
| c1ccc(CN(Cc2ccccn2)Cc2ccc3ccc4cccc5ccc2c3c45)nc1 [II-5, 1-(pyren-1-yl)-N, N-bis(pyridin-2-ylmethyl)methanamine] |  |  |  |  |  |  |  |  |  |  |  |  |  |  |  |  |  |  | effect of LPS kinase knockouts on fluorescence fold [12]: little to no change; effect of cardiolipin synthase knockouts on fluorescence fold [12]: greatest effect; FIexc response to increasing PA vesicle concentrations, unmetallated (PA vesicles): did not respond; ability to detect PA vesicles in the absence of Zn^2+ (ΔFI) (PA vesicles): lost their ability to sense PA |
